In patent publication US20040209934A1, “Protein phosphate inhibitors” (priority 2001, published 2004):
Read-outs that look alike come from different tables or passages of the source. *1 amine or outer side, *2 acyl side, *3 side chain or, on linkers, in order; H or OH if unused. Where a SMILES comes first, the peptide text is derived from it. Bridges are numbered along the chain shown (N, C = ends). [ ]: non-standard residue; d: D form. Adda = CO[C@@H](Cc1ccccc1)[C@@H](C)/C=C(C)/C=C/[C@H](N[*:1])[C@H](C)C(=O)[*:2]; dAsp(3S-Me) = C[C@H](C(=O)[*:3])[C@@H](N[*:1])C(=O)[*:2]; d(γGlu) = O=C(O)[C@@H](CCC(=O)[*:2])N[*:1]; NMeDha = C=C(NC)C(=O)O

How the values were obtained:
PP1 [1] = target: T1, PP1 (Homo sapiens, UniProt P62136); experiment: Protein phosphatase assay with [32P]-glycogen phosphorylase a as substrate, PP1; type: biochemical; set-up: made in house
Experimental: Protein phosphatase assays were carried out essentially as described (Collins, E.; Sim, A. T. R.; Methods in Molecular Biology 1998, 93, 79-102) using [^32P]-glycogen phosphorylase a as substrate and recombinant PP1 (Bernt, N. Methods in Molecular Biology, 1998, 93, 67-78) or partially purified (chicken skeletal muscle) PP2A catalytic subunits (Mackintosh, C. In Protein Phosphorylation: A Practical Approach, Ed D G Hardie, IRL, 1993). Briefly, enzyme activity was measured at 30 ° C. in a buffer (final volume of […]) containing 50 mM Tris-HCl (pH 7.5), 1 mM EGTA, 0.1 mM EDTA, 5 mM Caffeine, 0.1% mercaptoethanol, 0.3 mg/mL BSA. The concentration of PP1 or PP2A used was such that the reaction was limited to 15% dephosphorylation to ensure linearity. The reaction was started with the addition of […] [^32P]-glycogen phosphorylase a and terminated after 20 minutes by the addition of […] ice-cold 70% TCA. After 10 minutes on ice the sample was centrifuged and a […] aliquot of the supematant was removed for scintillation counting of the [^32p] released during the reaction.

[2] = system: HL60 (human leukaemia, p53 nul); experiment: cells; type: cell-based
Description: (§1) The MTT assay can be used assess cytotoxicity.

[3] = system: HT29 (human colon carcinoma, p53 mt); experiment: cells; type: cell-based
Description: as §1

[4] = system: WiDr (human colon carcinoma, p53 mt); experiment: cells; type: cell-based; details: 72 h exposure, background Table 2, read-out: Cytotoxicity IC50, WiDr Colon
Description: as §1

[5] = system: 143B (143BTK-, human oesteosarcoma); experiment: cells; details: 72 h, read-out: Cytotoxicity IC50, 143B Ostesarcoma
Description: (§2) The cell lines chosen for study include both normal (non-cancer) and tumour-derived cell lines that represent both haematopoietic and solid tumor types with varying cell cycle control mechanisms (ie p53 status); CCD-18Co (normal human colon), L1210 (murine leukaemia, p53 mt), HL60 (human leukaemia, p53 nul), A2780 (human ovarian carcinoma, p53 wt), ADDP (cisplatin resistant A2780 cells, p53 mt), HCT116 (human colon carcinoma, p53 wt), SW480 (human colon carcinoma, p53 wt), WiDr (human colon carcinoma, p53 mt), HT29 (human colon carcinoma, p53 mt) and 143BTK-(human oesteosarcoma) cells.
(§3) The MTT assay can be used assess cytotoxicity. This assay determines cell viability by the ability of mitochondrial dehydrogenase to produce formazan crystals from 3-(4,5-dimethylthiazol-2-yl)2,5-diphenyltetrazolium bromide. The viable cell number/well is directly proportional to the production of formazan, which following solubilization, can be measured spectrophotometrically (540 nm). […] This technique is also used by the NCI(National Cancer Institute, USA) to screen for new anticancer agents. The MTT assay may be performed 72 h after exposure of the cells to varying doses of the phosphatase inhibitors. Since these agents are likely to interfere with the cell cycle it is important to test the cytotoxicity for at least two-three cell divisions.

[6] = system: A2780 (human ovarian carcinoma, p53 wt); experiment: cells; details: A2780, 72 h, read-out: Cytotoxicity IC50, A2780 Ovarian
Description: as §2, §3

PP2A = PP2A (Homo sapiens, UniProt P67775); details: read-out: PP2A protein phosphatase inhibition (IC50), cited from earlier work
[7] = system: L1210 (murine leukaemia, p53 mt); experiment: cells; type: cell-based; details: Mus musculus, Table 3, read-out: Cytotoxicity IC50, L1210
Description: as §1

[8] = system: SW480 (human colon carcinoma, p53 wt); experiment: cells; type: cell-based; details: Table 3, read-out: Cytotoxicity IC50, SW480
Description: as §1

PP1 [9] = target: T1, PP1; details: read-out: PP1 protein phosphatase inhibition (IC50); cited from earlier work
[10] = Table 2 cantharimides, average of three experiments in triplicate, read-out: PP1 Inhibition IC50
[11] = HL-60, 72 h exposure, background Table 2, read-out: Cytotoxicity IC50, HL60 Leukaemia
[12] = HT-29, 72 h exposure, background Table 2, read-out: Cytotoxicity IC50, HT29 Colon

T1 sequence (P62136 whole entry): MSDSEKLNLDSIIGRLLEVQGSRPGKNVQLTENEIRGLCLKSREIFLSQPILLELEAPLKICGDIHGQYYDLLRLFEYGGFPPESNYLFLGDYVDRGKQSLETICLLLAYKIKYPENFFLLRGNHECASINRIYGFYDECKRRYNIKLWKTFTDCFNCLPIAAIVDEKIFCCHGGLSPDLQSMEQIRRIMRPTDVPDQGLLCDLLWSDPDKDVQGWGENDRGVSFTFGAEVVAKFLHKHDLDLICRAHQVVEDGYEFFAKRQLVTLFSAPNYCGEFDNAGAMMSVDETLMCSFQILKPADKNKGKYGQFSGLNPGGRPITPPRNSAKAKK
Chain of PP2A (P67775 whole entry): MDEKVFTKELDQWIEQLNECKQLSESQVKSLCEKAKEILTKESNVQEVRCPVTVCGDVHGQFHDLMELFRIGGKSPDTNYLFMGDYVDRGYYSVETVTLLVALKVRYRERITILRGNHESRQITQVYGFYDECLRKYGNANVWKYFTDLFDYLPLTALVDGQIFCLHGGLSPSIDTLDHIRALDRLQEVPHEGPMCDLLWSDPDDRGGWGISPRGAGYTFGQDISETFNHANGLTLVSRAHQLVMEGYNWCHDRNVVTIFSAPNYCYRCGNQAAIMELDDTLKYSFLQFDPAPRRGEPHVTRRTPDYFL

## CSCC[C@@H](C(=O)O)N1C(=O)C2C3CCC(O3)C2C1=O (stereo partly shown) [Compound 19]
PP1 [1]; [10]
  IC50: > 1000 µM

## O=C(O)[C@H](Cc1c[nH]c2ccccc12)N1C(=O)C2C3CCC(O3)C2C1=O (stereo partly shown) [Compound 13]
PP1 [1]; read-out: PP1 IC50
  IC50: 312 ± 153 µM

## O=C(O)C(Cc1ccc(O)cc1)N1C(=O)C2C3CCC(O3)C2C1=O (single isomer, unassigned) [Compound 16]
PP1 [1]; [10]
  IC50: 101 ± 34 µM

## CC[C@@H](C)[C@H](C(=O)O)N1C(=O)C2C3CCC(O3)C2C1=O (stereo partly shown) [Compound 10]
PP1 [1]; [10]
  IC50: > 1000 µM

## O=C1OC(O)[C@@H]2[C@H]1[C@H]1CC[C@@H]2O1 (stereo partly shown)
[2]; [11]
  IC50: 393 ± 103 µM
[3]; [12]
  IC50: 14 ± 0.3 µM
[4]
  IC50: 15 ± 3 µM
[5]
  IC50: 454 ± 50 µM
[6]
  IC50: 333 ± 55 µM

## NC(=O)CC[C@H](C(=O)O)N1C(=O)C2C3CCC(O3)C2C1=O (stereo partly shown) [Compound 18]
PP1 [1]; [10]
  IC50: 95 ± 5 µM

## O=C(O)[C@@H](Cc1c[nH]c2ccccc12)N1C(=O)C2C3CCC(O3)C2C1=O (stereo partly shown) [Compound 12]
PP1 [1]; read-out: PP1 IC50
  IC50: 770 ± 146 µM

## C=C1[C@@H](O)[C@@H]2O[C@]3(CC[C@H](/C=C/[C@@H](C)[C@@H]4CC(C)=C[C@@]5(O[C@H](C[C@@](C)(O)C(=O)O)CC[C@H]5O)O4)O3)CC[C@H]2O[C@@H]1[C@@H](O)C[C@H](C)[C@H]1O[C@@]2(CCCCO2)CC[C@H]1C [Okadaic acid]
PP2A; naturally occurring toxins, background Table 1
  IC50: 0.51 nM

## O=C(O)[C@@H](Cc1cnc[nH]1)N1C(=O)C2C3CCC(O3)C2C1=O (stereo partly shown) [Compound 14]
[2]; HL-60, Table 3, read-out: Cytotoxicity IC50, HL60
  IC50: 21 ± 13 µM
[3]; HT-29, Table 3, read-out: Cytotoxicity IC50, HT29
  IC50: 28 ± 9 µM
[7]
  IC50: 6 ± 1 µM
[8]
  IC50: 32 ± 12 µM
PP1 [1]; [10]
  IC50: 3.22 ± 0.7 µM
PP1 [1]; Table 3 summary, read-out: PP1 Inhibition
  IC50: 3.22 ± 0.7 µM

## C=C1C(=O)N[C@H](C)C(=O)N[C@@H](CC(C)C)C(=O)N[C@@H](C(=O)O)[C@H](C)C(=O)N[C@@H](CCCNC(=N)N)C(=O)N[C@@H](/C=C/C(C)=C/[C@H](C)[C@H](Cc2ccccc2)OC)[C@H](C)C(=O)N[C@@H](C(=O)O)CCC(=O)N1C [Microcystin LR] (R[Adda][d(γGlu)][NMeDha][dA]L[dAsp(3S-Me)]-OH; lactam N-7)
PP1 [9]
  IC50: 0.0017 µM
PP2A
  IC50: 0.04 nM

## C[C@@H](C(=O)O)N1C(=O)C2C3CCC(O3)C2C1=O (stereo partly shown) [Compound 5]
PP1 [1]; [10]
  IC50: > 1000 µM

## CC(C)C[C@H](C(=O)O)N1C(=O)C2C3CCC(O3)C2C1=O (stereo partly shown) [Compound 8]
PP1 [1]; [10]
  IC50: > 1000 µM

## O=C(O)[C@H](Cc1ccccc1)N1C(=O)C2C3CCC(O3)C2C1=O (stereo partly shown) [Compound 7]
PP1 [1]; [10]
  IC50: > 1000 µM

## C[C@@]12C(=O)OC(=O)[C@]1(C)[C@H]1CC[C@@H]2O1 [drawing 2]
[2]; [11]
  IC50: 10 ± 2 µM
[3]; [12]
  IC50: 6.5 ± 0.5 µM
[4]
  IC50: 6.1 ± 0.5 µM
[5]
  IC50: 10 ± 1 µM
[6]
  IC50: 10 ± 2 µM
